Assay results: paper PMC8596843, “Platinum Cyclooctadiene Complexes with Activity against Gram‐positive Bacteria” (Chemmedchem, 2021)
Marks after values point to notes of the source that are not given here.

Legend:
[1] = system: S. aureus NRS 17 GISA; assay: MIC in the presence of human serum (serum reversal); format: cell-based, Staphylococcus aureus; details: 50% serum
Source text: To obtain some initial insight into the apparent disparity between in vitro and in vivo results, we repeated the MIC experiments against four selected Gram‐positive strains in the presence of 10 % or 50 % human serum (Table S3). Pt1 and Pt2 maintained some antibacterial activity against B. subtilis in the presence of 10 % serum, but a complete loss of activity was observed against MRSA and GISA (50 % serum), and VRE (10 % serum). […] Systemic administration is therefore unlikely to be a suitable administration route for this class of compounds unless an alternative formulation that can prevent serum binding (e. g. by lipid or nanoparticle encapsulation) can be found. […] Further in vivo studies should therefore focus on more suitable disease models. […]
(§1) Antibacterial minimum inhibitory concentration (MIC) assay
(§2) concentration. (in-house screening)
(§3) Bacto Laboratories 212322) at 37 °C overnight.
The resultant mid-log phase cultures were diluted
Gram-negative and Gram-positive bacteria, respectively.
final concentration range of 0.8 – 100 µM.
inhibitors as positive control. […]

[2] = system: Cryptococcus neoformans H99 ATCC 208821; assay: Antifungal MIC (CO-ADD screening); format: cell-based
Method: (§4) InChIKey: PHIWIZAHOBWKFJ-HPCBIOCFSA-N
(§5) Health Central Pathology. Candida albicans (ATCC 90028, NCCLS 11), Cryptococcus neoformans
as §1, §2, §3

[3] = system: Candida albicans ATCC 90028; assay: Antifungal MIC (CO-ADD screening); format: cell-based
Method: as §4, §5, §1, §2, §3

[4] = system: Klebsiella pneumoniae ATCC 700603 (ESBL SHV‐18)
Method: (§6) All compounds submitted to CO‐ADD are initially screened against five bacterial strains (Staphylococcus aureus (MRSA), E. coli, Klebsiella pneumoniae, Pseudomonas aeruginosa, Acinetobacter baumannii) and two fungal strains (Candida albicans, Cryptococcus neoformans) at a single concentration (32 μg/mL or 20 μM) performed as a high‐throughput primary screening.[[11], [17a]] Any compounds that show significant growth inhibition against any of the tested strains at this step are then evaluated in a dose‐response assay against these same strains. […]
(§7) Smiles: C1C=CCCC(=CC1)C1=CCCC=CCC1.C[Pt]C.C[Pt]C […]
(§8) ATCC strains were sourced from the American Type Culture Collection and NRS strains from NARSA (Network on Antimicrobial Resistance in Staphylococcus aureus) via BEI Resources (www.beiresources.org), with clinical MSSA and MRSA isolates from Prof Graeme Nimmo, Queensland […]
(§9) Health Central Pathology. […]
as §1
(§10) Compound Assay Plate Preparation: Compounds were dissolved in DMSO at 10mM (CO-ADD screening) or 4 mM (follow up screening) and were plated in a 2-fold dose response from 20 to 0.156 µM or 200 to 0.006 µM respectively, with a maximum of 0.5% or 1% DMSO, final in the assay […]
(§11) plated in a 2-fold dose response from 200 to 0.006 µM, with a maximum of 1 % DMSO, final in the assay concentration. (in-house screening)
(§12) For all the bacterial assays, each strain was cultured in Cation-adjusted Mueller Hinton broth (CAMHB; Bacto Laboratories 212322) at 37 °C overnight. A sample of each culture was then diluted 40-fold in fresh CAMHB and incubated at 37 °C for 1.5–3 h. The resultant mid-log phase cultures were diluted with CAMHB (CFU mL−1 measured by OD600), then added to each well of the compound-containing plates (384-well non-binding surface (NBS) plates; Corning CLS3640), giving a cell density of 5 × 10^5 CFU mL−1 and a total volume of 50 μL. Plates were covered and incubated at 37 °C for 18 h without shaking. Inhibition of bacterial growth was determined measuring absorbance at 600 nm (OD600), using media only as negative control and bacteria without inhibitors as positive control. MIC values were determined as the lowest concentration at which the growth was inhibited at ≥80%. Colistin sulfate (Sigma C4461) and vancomycin HCl (Sigma 861987) were used as internal controls on each plate for Gram-negative and Gram-positive bacteria, respectively. […]

[5] = system: Staphylococcus aureus VRS 1, VRSA (VanA); assay: Antibacterial MIC assay, Gram-positive panel; format: cell-based; details: n=4
Source text: (§13) Bis(dimethyl-η4)-((1Z,1'E,5Z,5'E)-(1,1'-bi(cyclooctadiene))diplatinum(II) (Pt14) Smiles: C1C=CCCC(=CC1)C1=CCCC=CCC1.C[Pt]C.C[Pt]C
as §4
(§14) Link to selected data that was repeated to approve the identity of the compounds: https://dx.doi.org/10.14272/PHIWIZAHOBWKFJ-HPCBIOCFSA-N.1
as §8, §9, §1, §10, §11, §12

[6] = system: Staphylococcus aureus ATCC 25923, MSSA; assay: Antibacterial MIC assay, Gram-positive panel; format: cell-based; details: n=4
Source text: as §13, §4, §14, §8, §9, §1, §10, §11, §12

[7] = system: Enterococcus faecium ATCC 51559, MDR, VRE (VanA); assay: Antibacterial MIC assay, Gram-positive panel; format: cell-based; details: n=2
Method: as §7, §8, §9, §1, §10, §11, §12

[8] = system: Enterococcus faecalis Clinical Isolate, VRE (VanB); assay: Antibacterial MIC assay, Gram-positive panel; format: cell-based; details: n=4
Method: as §7, §8, §9, §1, §10, §11, §12

[9] = system: Enterococcus faecalis ATCC 29212, control strain; assay: Antibacterial MIC assay, Gram-positive panel; format: cell-based; details: n=4
Method: as §7, §8, §9, §1, §10, §11, §12

[10] = system: Enterococcus faecium ATCC 35667, type strain; assay: Antibacterial MIC assay, Gram-positive panel; format: cell-based; details: n=4
Method: as §7, §8, §9, §1, §10, §11, §12

[11] = system: Staphylococcus epidermidis ATCC 14990, type strain; assay: Antibacterial MIC assay, Gram-positive panel; format: cell-based; details: n=4
Method: as §7, §8, §9, §1, §10, §11, §12

[12] = system: Bacillus subtilis ATCC 6051, type strain; assay: Antibacterial MIC assay, Gram-positive panel; format: cell-based; details: n=2
Method: as §7, §8, §9, §1, §10, §11, §12

[13] = system: Enterococcus faecium Clinical Isolate, VRE (VanA); assay: Antibacterial MIC assay, Gram-positive panel; format: cell-based; details: n=4
Method: as §7, §8, §9, §1, §10, §11, §12

[14] = system: Staphylococcus epidermidis NRS 60, VISE; assay: Antibacterial MIC assay, Gram-positive panel; format: cell-based; details: n=4
Method: as §7, §8, §9, §1, §10, §11, §12

[15] = system: Staphylococcus aureus ATCC 43300 (MRSA); assay: microbe, parasite or virus in culture; format: cell-based; details: for MIC Sa: CO‐ADD screening; for MIC: n=2; for MIC values as low as (panel of S. aureus strains): lowest MIC within the S. aureus panel
Method: as §6, §7, §8, §9, §1, §10, §11, §12

[16] = system: HEK-293 ATCC CRL-1573 human embryonic kidney cells; format: cell-based
Method: As part of the CO‐ADD screening, all compounds that show any activity against a microbial strain are evaluated for their cytotoxicity against human embryonic kidney cells (HEK‐293) and for haemolysis against human red blood cells. None of the compounds tested for cytotoxicity (Pt1‐9 and Pd1) caused any significant cell death up to concentrations of 100 μM. […] We have also observed higher IC50 values for the methylated complexes Pt3 and Pt4 against HeLa cells in previous work.[16] […]
inhibitors as positive control.
Tamoxifen (Sigma T5648) was used
as internal control on each plate.
in a Neubauer haemocytometer. […]

Row | Compound | MIC in the presence of human serum [1] [µM] | MIC Cn [2] [µM] | MIC Ca [3] [µM] | MIC Kp [4] [µM] | MIC ([5]; Table 2 panel) | MIC ([6]; Table 2 panel) | MIC ([7]; Table 2 panel) | MIC ([8]; Table 2 panel) | MIC ([9]; Table 2 panel) | MIC ([10]; Table 2 panel) | MIC ([11]; Table 2 panel) | MIC ([12]; Table 2 panel) | MIC ([13]; Table 2 panel) | MIC ([14]; Table 2 panel) | MIC Sa [15] [µM] | MIC ([15]; Table 2 panel) | MIC values as low as (panel of S. aureus strains) [15] [µM] | CC50 [16] [µM] | other results
1 | C1=C\CC/C=C\CC/1.[Cl-].[Cl-].[Pt+2] [Pt1, Pt(COD)Cl2] | > 200 | 1.25 to 5 | 10 to 20 | >20 | 12.5^[a] μg/mL | 3.125^[a] μg/mL | 12.5^[b] μg/mL | 25^[a] μg/mL | 50–100^[a] μg/mL | 25^[a] μg/mL | 0.781^[a] μg/mL | 6.25^[b] μg/mL | 25–50^[a] μg/mL | 3.125^[a] μg/mL | 0.625 to 2.5 | 0.39^[b] μg/mL | 0.39 | > 100 | 
2 | C1=CCC/C=C\CC1.[I][Pt][I] [Pt2, Pt(COD)I2] | > 200 | 2.5 | 10 | >20 | 6.25^[a] μg/mL | 1.56–3.125^[a] μg/mL | 12.5–25^[b] μg/mL | 12.5–25^[a] μg/mL | 25–50^[a] μg/mL | 25^[a] μg/mL | 1.56^[a] μg/mL | 3.125–6.25^[b] μg/mL | 25^[a] μg/mL | 6.25^[a] μg/mL | 1.25 | 0.39–0.78^[b] μg/mL | 0.39 | > 100 | 
3 | CCC1=CCCC=CCC1.[CH3][Pt][Cl] [Pt7] | > 200 | 20 | 10 | >20 |  |  |  |  |  |  |  |  |  |  | >20 |  |  | > 100 | MIC ([5]; Table S1 panel): > 200 µM; MIC ([6]; Table S1 panel): > 200 µM; MIC ([7]; Table S1 panel): 200 µM; MIC ([8]; Table S1 panel): > 200 µM; MIC ([9]; Table S1 panel): > 200 µM; MIC ([10]; Table S1 panel): > 200 µM; MIC ([11]; Table S1 panel): 200 µM; MIC ([12]; Table S1 panel): > 200 µM; MIC ([13]; Table S1 panel): > 200 µM; MIC ([14]; Table S1 panel): > 200 µM; MIC ([15]; Table S1 panel): 200 µM
